The values below come from patent US11208386B2, “Inhibitors of protein arginine deiminases (PADs) and methods of preparation and use thereof” (University of Massachusetts, priority 2016, dated 2021).

The conditions of test [1]: cited from earlier work.
Test [2] concerns the target T1, PAD3 (Homo sapiens, UniProt Q9ULW8).
T1 construct: made in house
T1 sequence (Q9ULW8 1-664): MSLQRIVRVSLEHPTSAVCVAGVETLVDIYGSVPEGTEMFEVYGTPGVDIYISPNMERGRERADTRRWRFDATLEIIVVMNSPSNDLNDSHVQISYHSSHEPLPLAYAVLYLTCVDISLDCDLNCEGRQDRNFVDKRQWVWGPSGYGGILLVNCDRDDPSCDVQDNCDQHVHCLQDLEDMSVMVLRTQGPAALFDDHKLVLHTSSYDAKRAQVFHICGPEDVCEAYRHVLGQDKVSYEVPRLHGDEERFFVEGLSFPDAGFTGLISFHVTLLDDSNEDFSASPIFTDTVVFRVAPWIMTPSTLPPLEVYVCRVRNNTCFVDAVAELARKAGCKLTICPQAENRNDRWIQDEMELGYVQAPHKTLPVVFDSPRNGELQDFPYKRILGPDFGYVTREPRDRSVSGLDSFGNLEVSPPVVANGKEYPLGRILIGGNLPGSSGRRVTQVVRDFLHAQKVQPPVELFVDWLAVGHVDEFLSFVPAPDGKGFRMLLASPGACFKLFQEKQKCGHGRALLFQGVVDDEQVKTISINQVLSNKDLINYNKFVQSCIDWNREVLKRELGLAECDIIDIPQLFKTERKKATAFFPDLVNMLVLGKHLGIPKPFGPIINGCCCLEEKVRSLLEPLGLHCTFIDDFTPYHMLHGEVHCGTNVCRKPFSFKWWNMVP
The test is described as follows: Inactivation kinetics, PAD3. It is filed as biochemical. The conditions noted are these: for kinact/KI: a: single kobs determined; for Fold PAD3 Selectivity: kinact/KI relative to least inhibited isozyme (1.0). A digest of the protocol: (§1)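 PAD1, 2 or 4 (2.0 μM) or PAD3 (5.0 μM) preincubated at 37 °C with varying inhibitor in 50 mM HEPES, 10 mM CaCl2, 2 mM DTT, pH 7.6. Timed aliquots assayed 15 min with 10 mM BAEE (BAA for PAD3); citrulline quantified by COLDER.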

Test [3] deals with T2, PAD4 (Homo sapiens, UniProt Q9UM07).
T2 construct: made in house
T2 sequence (Q9UM07 whole entry): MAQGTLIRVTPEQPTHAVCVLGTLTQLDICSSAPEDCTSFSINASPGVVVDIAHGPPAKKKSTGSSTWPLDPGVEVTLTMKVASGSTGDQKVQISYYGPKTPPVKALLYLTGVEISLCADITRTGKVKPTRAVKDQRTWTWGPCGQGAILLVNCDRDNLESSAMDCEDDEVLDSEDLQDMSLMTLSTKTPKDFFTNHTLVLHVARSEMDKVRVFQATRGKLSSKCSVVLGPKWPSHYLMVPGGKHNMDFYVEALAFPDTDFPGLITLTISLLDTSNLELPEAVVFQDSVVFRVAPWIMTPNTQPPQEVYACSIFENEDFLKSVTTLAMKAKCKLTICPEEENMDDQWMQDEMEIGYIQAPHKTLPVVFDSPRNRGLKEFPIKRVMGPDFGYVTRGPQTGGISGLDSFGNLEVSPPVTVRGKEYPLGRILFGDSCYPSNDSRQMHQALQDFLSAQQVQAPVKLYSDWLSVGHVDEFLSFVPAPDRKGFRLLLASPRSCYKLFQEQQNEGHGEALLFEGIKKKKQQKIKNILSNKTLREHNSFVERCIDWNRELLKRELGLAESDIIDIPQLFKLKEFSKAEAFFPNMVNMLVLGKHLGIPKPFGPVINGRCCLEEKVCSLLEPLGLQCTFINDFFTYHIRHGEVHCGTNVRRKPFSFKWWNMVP
Kind of test: Inactivation kinetics, PAD4. The test is classed as biochemical. Particulars: for kinact/KI: a: single kobs determined, b: from a linear fit; for Fold PAD4 Selectivity: kinact/KI relative to least inhibited isozyme (1.0). The method in brief:
as §1

In test [4] the target is T3, PAD2 (Homo sapiens, UniProt Q9Y2J8).
T3 construct: made in house
T3 sequence (Q9Y2J8 whole entry): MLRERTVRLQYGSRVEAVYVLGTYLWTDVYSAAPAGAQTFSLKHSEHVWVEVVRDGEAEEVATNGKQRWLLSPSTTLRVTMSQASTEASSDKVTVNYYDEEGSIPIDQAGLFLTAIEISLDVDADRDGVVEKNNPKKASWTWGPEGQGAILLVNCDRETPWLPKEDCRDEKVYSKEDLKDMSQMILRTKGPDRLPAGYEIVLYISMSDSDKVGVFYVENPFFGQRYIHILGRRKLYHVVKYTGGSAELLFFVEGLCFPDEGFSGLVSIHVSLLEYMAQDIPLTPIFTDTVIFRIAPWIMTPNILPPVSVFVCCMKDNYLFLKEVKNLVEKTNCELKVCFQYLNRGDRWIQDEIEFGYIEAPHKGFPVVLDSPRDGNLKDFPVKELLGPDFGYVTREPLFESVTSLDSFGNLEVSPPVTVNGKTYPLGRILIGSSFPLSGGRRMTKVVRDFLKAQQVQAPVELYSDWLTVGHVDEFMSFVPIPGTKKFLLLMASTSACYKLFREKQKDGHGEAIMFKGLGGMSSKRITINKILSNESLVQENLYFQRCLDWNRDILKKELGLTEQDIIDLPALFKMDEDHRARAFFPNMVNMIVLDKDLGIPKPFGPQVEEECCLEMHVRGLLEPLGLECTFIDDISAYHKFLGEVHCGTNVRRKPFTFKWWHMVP
The test is described as follows: Inactivation kinetics, PAD2. It is filed as biochemical. The conditions noted are these: for kinact/KI: a: single kobs determined, b: from a linear fit, other footnotes: from kinact and KI; for Fold PAD2 Selectivity: kinact/KI relative to least inhibited isozyme (1.0). The method in brief:
as §1

Test [5] deals with T4, PAD1 (Homo sapiens, UniProt Q9ULC6).
T4 construct: made in house
T4 sequence (Q9ULC6 1-663): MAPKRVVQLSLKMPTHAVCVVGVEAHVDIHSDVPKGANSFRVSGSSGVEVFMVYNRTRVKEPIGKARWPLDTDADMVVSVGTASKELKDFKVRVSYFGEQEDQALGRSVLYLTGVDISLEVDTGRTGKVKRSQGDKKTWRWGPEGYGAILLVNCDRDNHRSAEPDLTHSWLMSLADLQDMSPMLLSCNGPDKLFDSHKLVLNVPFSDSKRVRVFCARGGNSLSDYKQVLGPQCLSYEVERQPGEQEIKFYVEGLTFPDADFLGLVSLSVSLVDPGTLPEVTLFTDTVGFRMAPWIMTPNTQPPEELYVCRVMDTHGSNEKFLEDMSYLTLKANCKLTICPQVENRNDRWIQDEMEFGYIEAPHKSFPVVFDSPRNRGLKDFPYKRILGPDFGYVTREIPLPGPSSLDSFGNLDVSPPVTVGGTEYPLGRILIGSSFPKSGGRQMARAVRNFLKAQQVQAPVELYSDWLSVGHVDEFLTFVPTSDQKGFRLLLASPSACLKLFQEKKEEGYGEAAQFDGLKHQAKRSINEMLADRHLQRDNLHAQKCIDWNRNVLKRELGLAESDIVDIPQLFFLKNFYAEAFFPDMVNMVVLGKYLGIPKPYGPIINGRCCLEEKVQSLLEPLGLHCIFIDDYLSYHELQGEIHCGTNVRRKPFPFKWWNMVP
The test is described as follows: Inactivation kinetics, PAD1. It is filed as biochemical. The conditions noted are these: for kinact/KI: a: single kobs determined, b: from a linear fit; for Fold PAD1 Selectivity: kinact/KI relative to least inhibited isozyme (1.0). The method in brief: as §1

Test [6] addresses T3, PAD2. Kind of test: In vitro labeling of PAD2 with clickable probes to determine limit of detection. The test is classed as binding. The conditions noted are these: probe clicked with TAMRA-N3. How it is done:
In Vitro Labeling o f PAD2 with BB-F-Yne (5u) and BB-C-Yne (5v) to Determine their Limit of detection (LOD)
BB-F-Yne (5u) or BB-Cl-Yne (5v) (10 μM) were incubated with decreasing concentrations of recombinant PAD2 (1.0 to 0.025 μM) in the presence of CaCl2 in 1×PBS (2 mM) at 37° C. for 1 h. The probe labeled enzymes were coupled to TAMRA-N3 (20 μM) in the presence of 1×TBTA (0.31 mM), sodium ascorbate (2 mM) and freshly prepared CuSO4 (1 mM). The tubes were gently tumbled for 1 h. […] The bands were visualized by scanning the gel in a typhoon scanner (approximate excitation/emission maxima 546/579, respectively).

Turning to `N=C(CCl)NCCC[C@H](NC(=O)c1ccccc1)C(N)=O` [Cl-amidine], the “efficacy in animal models” value in test [1] (rheumatoid arthritis, lupus, ulcerative colitis, spinal cord injury, breast cancer, atherosclerosis) is reported as “demonstrated efficacy”.

Take `C#Cc1ccc(-c2ccc(C(=O)N[C@@H](CCCNC(=N)CF)c3nc4ccccc4[nH]3)cc2)cc1` [Compound 5u, N1-4′-ethynyl-[1,1′-Phenyl]benzol-N5-(2-fluoro-1-iminoethyl)-1-(1H-benzo[d]imidazol-2-yl)-L-ornithine]: in test [2], the kinact/KI was 17.1 M⁻¹ s⁻¹ and the “Fold PAD3 Selectivity” value worked out at 1.1 fold. Also, in test [3], the second-order inactivation constant (kinact/KI) was 29.5 M⁻¹ s⁻¹ and the “Fold PAD4 Selectivity” value is reported as 1.8 fold. Besides, in test [4], the second-order inactivation constant (kinact/KI) is 16.2 M⁻¹ s⁻¹ and the “Fold PAD2 Selectivity” value is given as 1.0 fold. Also, in test [5], the inactivation efficiency (kinact/KI) is 77.5 M⁻¹ s⁻¹ and the “Fold PAD1 Selectivity” value came out at 4.8 fold. Moreover, in test [6], the “limit of detection (LOD) for PAD2” value is on record as 375 fmol.

With `Cn1c([C@H](CCCNC(=N)CCl)NC(=O)c2ccccc2C(=O)OC(C)(C)C)nc2ccccc21` [Compound 9b, N1-(2-tert-butylcarboxy)benzol-N5-(2-chloro-1-iminoethyl)-1-(1-methyl-benzo[d]imidazol-2-yl)-L-ornithine], in test [2], the second-order inactivation constant (kinact/KI) is 86.7 M⁻¹ s⁻¹ and the “Fold PAD3 Selectivity” value came out at 1.6 fold. For the same compound, in test [3], the kinact/KI was 64.2 M⁻¹ s⁻¹ and the “Fold PAD4 Selectivity” value came to 1.2 fold. Moreover, in test [4], the kinact/KI is 55.2 M⁻¹ s⁻¹ and the “Fold PAD2 Selectivity” value stood at 1.0 fold. In addition, in test [5], the inactivation efficiency (kinact/KI) is 325 M⁻¹ s⁻¹ and the “Fold PAD1 Selectivity” value was determined as 5.9 fold.

On to `CCn1c([C@H](CCCNC(=N)CF)NC(=O)c2ccccc2C(=O)OC(C)(C)C)nc2ccccc21` [Compound 9c, N1-(2-tert-butylcarboxy)benzoyl-N5-(2-fluoro-1-iminoethyl)-1-(1-ethyl-benzo[d]imidazol-2-yl)-L-ornithine], for which, in test [2], the inactivation efficiency (kinact/KI) was 51.7 M⁻¹ s⁻¹ and the “Fold PAD3 Selectivity” value stood at 7.0 fold. Moreover, in test [3], the kinact/KI was 7.33 M⁻¹ s⁻¹ and the “Fold PAD4 Selectivity” value came to 1.0 fold. In test [4], the kinact/KI is 102 M⁻¹ s⁻¹ and the “Fold PAD2 Selectivity” value came to 14 fold. In test [5], the second-order inactivation constant (kinact/KI) was 15.8 M⁻¹ s⁻¹ and the “Fold PAD1 Selectivity” value is given as 2.2 fold.

`CCn1c([C@H](CCCNC(=N)CCl)NC(=O)c2ccccc2C(=O)OC(C)(C)C)nc2ccccc21` [Compound 9d, N1-(2-tert-butylcarboxy)benzoyl-N5-(2-chloro-1-iminoethyl)-1-(1-ethyl-benzo[d]imidazol-2-yl)-L-ornithine]: in test [2], the kinact/KI is 78.3 M⁻¹ s⁻¹ and the “Fold PAD3 Selectivity” value came to 3.6 fold. Besides, in test [3], the kinact/KI was 21.7 M⁻¹ s⁻¹ and the “Fold PAD4 Selectivity” value worked out at 1.0 fold. In test [4], the kinact/KI was 152 M⁻¹ s⁻¹ and the “Fold PAD2 Selectivity” value was found to be 7.0 fold. For the same compound, in test [5], the kinact/KI was 200 M⁻¹ s⁻¹ and the “Fold PAD1 Selectivity” value was 9.3 fold.

Turning to `CC(C)n1c([C@H](CCCNC(=N)CF)NC(=O)c2ccccc2C(=O)OC(C)(C)C)nc2ccccc21` [Compound 9e, N1-(2-tert-butylcarboxy)benzoyl-N5-(2-fluoro-1-iminoethyl)-1-(1-isopropyl-benzo[d]imidazol-2-yl)-L-omithine], in test [2], the kinact/KI was 35 M⁻¹ s⁻¹ and the “Fold PAD3 Selectivity” value was determined as 13 fold. In test [3], the second-order inactivation constant (kinact/KI) was 2.67 M⁻¹ s⁻¹ and the “Fold PAD4 Selectivity” value was 1.0 fold. In addition, in test [4], the inactivation efficiency (kinact/KI) was 50.2 M⁻¹ s⁻¹ and the “Fold PAD2 Selectivity” value is 19 fold. Moreover, in test [5], the kinact/KI is 23.7 M⁻¹ s⁻¹ and the “Fold PAD1 Selectivity” value is listed as 8.9 fold.

`CC(C)n1c([C@H](CCCNC(=N)CCl)NC(=O)c2ccccc2C(=O)OC(C)(C)C)nc2ccccc21` [Compound 9f, N1-(2-tert-butylcarboxy)benzoyl-N5-(2-chloro-1-iminoethyl)-1-(1-isopropyl-benzo[d]imidazol-2-yl)-L-omithine]: in test [2], the kinact/KI is 80 M⁻¹ s⁻¹ and the “Fold PAD3 Selectivity” value is 7.1 fold. In addition, in test [3], the kinact/KI was 11.3 M⁻¹ s⁻¹ and the “Fold PAD4 Selectivity” value was 1.0 fold. Further, in test [4], the kinact/KI is 119 M⁻¹ s⁻¹ and the “Fold PAD2 Selectivity” value turned out to be 11 fold. Moreover, in test [5], the inactivation efficiency (kinact/KI) is 56 M⁻¹ s⁻¹ and the “Fold PAD1 Selectivity” value was determined as 4.9 fold.

In the case of GSK199, the “efficacy in an RA model” value in test [1] (in vivo) is recorded as “shows efficacy”.
